Measurements reported in patent US8574563B2 (Bristol-Myers Squibb Company, priority 2006, dated 2013).
Read-outs that look alike come from different tables or passages of the source.

Tested on: HCV 1b-377-neo replicon cells
Assay: HCV replicon assay, HCV 1b-377-neo replicon cells (1b FRET)
Type: cell-based, Hepatitis C virus genotype 1b
Conditions: HCV 1b-377-neo replicon cells, HCV 1b genotype, read-out: EC50 range against HCV 1b (Table 2, Range)
Procedure, shortened: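 Compounds tested in HCV genotype 1b-377-neo replicon cells with a FRET read-out. Cells resistant to a reference NS5A inhibitor through a Y2065H NS5A mutation were run alongside wild-type cells.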

SMILES | EC50 (Hepatitis C virus) | EC50
O=C([C@@H]1CCCO1)N1CCC[C@H]1c1ncc(-c2ccc(-c3ccc(-c4cnc([C@@H]5CCCN5C(=O)[C@@H](c5ccccc5)N5CCOCC5)[nH]4)cc3)cc2)[nH]1 [Example 105, 4-((1R)-2-oxo-1-phenyl-2-((2S)-2-(5-(4′-(2-((2S)-1-((2S)-tetrahydro-2-furanylcarbonyl)-2-pyrrolidinyl)-1H-imidazol-5-yl)-4-biphenylyl)-1H-imidazol-2-yl)-1-pyrrolidinyl)ethyl)morpholine] | 0.001 to 0.999 nM | 
CCN(CC)[C@@H](C(=O)N1CCC[C@H]1c1ncc(-c2ccc(-c3ccc(-c4cnc([C@@H]5CCCN5C(=O)[C@@H]5CCCO5)[nH]4)cc3)cc2)[nH]1)c1ccccc1 [Example 106, (1R)-N,N-diethyl-2-oxo-1-phenyl-2-((2S)-2-(5-(4′-(2-((2S)-1-((2S)-tetrahydro-2-furanylcarbonyl)-2-pyrrolidinyl)-1H-imidazol-5-yl)-4-biphenylyI)-1H-imidazol-2-yl)-1-pyrrolidinyl)ethanamine] |  | 0.001 to 0.999 nM
CCN(C)[C@@H](C(=O)N1CCC[C@H]1c1ncc(-c2ccc(-c3ccc(-c4cnc([C@@H]5CCCN5C(=O)[C@@H]5CCCO5)[nH]4)cc3)cc2)[nH]1)c1ccccc1 [Example 107, (1R)-N-ethyl-N-methyl-2-oxo-1-phenyl-2-((2S)-2-(5-(4′-(2-((2S)-1-((2S)-tetrahydro-2-furanylcarbonyl)-2-pyrrolidinyl)-1H-imidazol-5-yl)-4-biphenylyl)-1H-imidazol-2-yl)-1-pyrrolidinyl)ethanamine] | 0.001 to 0.999 nM | 
CC1(O)CCN([C@@H](C(=O)N2CCC[C@H]2c2ncc(-c3ccc(-c4ccc(-c5cnc([C@@H]6CCCN6C(=O)[C@@H](c6ccccc6)N6CCCCC6)[nH]5)cc4)cc3)[nH]2)c2ccccc2)CC1 [Example 107-2, 4-methyl-1-((1R)-2-oxo-1-phenyl-2-((2S)-2-(5-(4′-(2-((2S)-1-((2R)-2-phenyl-2-(1-piperidinyl)acetyl)-2-pyrrolidinyl)-1H-imidazol-5-yl)-4-biphenylyl)-1H-imidazol-2-yl)-1-pyrrolidinyl)ethyl)-4-piperidinol] | 0.001 to 0.999 nM | 
O=C(c1ccccc1F)N1CCC[C@H]1c1ncc(-c2ccc(-c3ccc(-c4cnc([C@@H]5CCCN5C(=O)[C@@H](c5ccccc5)N5CCCCC5)[nH]4)cc3)cc2)[nH]1 [Example 107-3, 1-((1R)-2-((2S)-2-(5-(4′-(2-((2S)-1-(2-fluorobenzoyl)-2-pyrrolidinyl)-1H-imidazol-5-yl)-4-biphenylyl)-1H-imidazol-2-yl)-1-pyrrolidinyl)-2-oxo-1-phenylethyl) piperidine] | 0.001 to 0.999 nM | 
CN(C)c1ccc(C(=O)N2CCC[C@H]2c2ncc(-c3ccc(-c4ccc(-c5cnc([C@@H]6CCCN6C(=O)[C@@H](c6ccccc6)N6CCCCC6)[nH]5)cc4)cc3)[nH]2)cc1 [Example 107-4, N,N-dimethyl-4-(((2S)-2-(5-(4′-(2-((2S)-1-((2R)-2-phenyl-2-(1-piperidinyl)acetyl)-2-pyrrolidinyl)-1H-imidazol-5-yl)-4-biphenylyl)-1H-imidazol-2-yl)-1-pyrrolidinyl)carbonyl)aniline] | 0.001 to 0.999 nM | 
CC(=O)CCC(=O)N1CCC[C@H]1c1ncc(-c2ccc(-c3ccc(-c4cnc([C@@H]5CCCN5C(=O)[C@@H](c5ccccc5)N5CCCCC5)[nH]4)cc3)cc2)[nH]1 [Example 107-5, 5-oxo-5-((2S)-2-(5-(4′-(2-((2S)-1-((2R)-2-phenyl-2-(1-piperidinyl)acetyl)-2-pyrrolidinyl)-1H-imidazol-5-yl)-4-biphenylyl)-1H-imidazol-2-yl)-1-pyrrolidinyl)-2-pentanone] | 0.001 to 0.999 nM | 
O=C(C(c1ccccc1)c1ccccc1)N1CCC[C@H]1c1ncc(-c2ccc(-c3ccc(-c4cnc([C@@H]5CCCN5C(=O)[C@@H](c5ccccc5)N5CCCCC5)[nH]4)cc3)cc2)[nH]1 [Example 107-6, 1-((1R)-2-((2S)-2-(5-(4′-(2-((2S)-1-(diphenylacetyl)-2-pyrrolidinyl)-1H-imidazol-5-yl)-4-biphenylyl)-1H-imidazol-2-yl)-1-pyrrolidinyl)-2-oxo-1-phenylethyl) piperidine] | 0.001 to 0.999 nM | 
O=C(CCN1CCCCC1)N1CCC[C@H]1c1ncc(-c2ccc(-c3ccc(-c4cnc([C@@H]5CCCN5C(=O)[C@@H](c5ccccc5)N5CCCCC5)[nH]4)cc3)cc2)[nH]1 [Example 107-7, 1-(3-oxo-3-((2S)-2-(5-(4′-(2-((2S)-1-((2R)-2-phenyl-2-(1-piperidinyl)acetyl)-2-pyrrolidinyl)-1H-imidazol-5-yl)-4-biphenylyl)-1H-imidazol-2-yl)-1-pyrrolidinyl)propyl)piperidine] | 0.001 to 0.999 nM | 
COc1ccccc1OCC(=O)N1CCC[C@H]1c1ncc(-c2ccc(-c3ccc(-c4cnc([C@@H]5CCCN5C(=O)[C@@H](c5ccccc5)N5CCCCC5)[nH]4)cc3)cc2)[nH]1 [Example 107-8, 1-((1R)-2-((2S)-2-(5-(4′-(2-((2S)-1-((2-methoxyphenoxy)acetyl)-2-pyrrolidinyl)-1H-imidazol-5-yl)-4-biphenylyl)-1H-imidazol-2-yl)-1-pyrrolidinyl)-2-oxo-1-phenylethyl) piperidine] | 0.001 to 0.999 nM | 
CC(C)(C)OC(=O)N1CCC(C(=O)N2CCC[C@H]2c2ncc(-c3ccc(-c4ccc(-c5cnc([C@@H]6CCCN6C(=O)[C@@H](c6ccccc6)N6CCCCC6)[nH]5)cc4)cc3)[nH]2)CC1 [Example 107-9, tert-butyl 4-(((2S)-2-(5-(4′-(2-((2S)-1-((2R)-2-phenyl-2-(1-piperidinyl)acetyl)-2-pyrrolidinyl)-1H-imidazol-5-yl)-4-biphenylyl)-1H-imidazol-2-yl)-1-pyrrolidinyl)carbonyl)-1-piperidinecarboxylate] | 0.001 to 0.999 nM | 
O=C(c1ccc(N2CCOCC2)cc1)N1CCC[C@H]1c1ncc(-c2ccc(-c3ccc(-c4cnc([C@@H]5CCCN5C(=O)[C@@H](c5ccccc5)N5CCCCC5)[nH]4)cc3)cc2)[nH]1 [Example 107-10, 4-(4-(((2S)-2-(5-(4′-(2-((2S)-1-((2R)-2-phenyl-2-(1-piperidinyl)acetyl)-2-pyrrolidinyl)-1H-imidazol-5-yl)-4-biphenylyl)-1H-imidazol-2-yl)-1-pyrrolidinyl)carbonyl)phenyl) morpholine] | 0.001 to 0.999 nM | 
O=C(c1cscn1)N1CCC[C@H]1c1ncc(-c2ccc(-c3ccc(-c4cnc([C@@H]5CCCN5C(=O)[C@@H](c5ccccc5)N5CCCCC5)[nH]4)cc3)cc2)[nH]1 [Example 107-11, 1-((1R)-2-oxo-1-phenyl-2-((2S)-2-(5-(4′-(2-((2S)-1-(1,3-thiazo1-4-ylcarbonyl)-2-pyrrolidinyl)-1H-imidazol-5-yl)-4-biphenylyl)-1H-imidazol-2-yl)-1-pyrrolidinyl)ethyl)piperidine] | 0.001 to 0.999 nM | 
CC(C)(C)OC(=O)N1CC(C(=O)N2CCC[C@H]2c2ncc(-c3ccc(-c4ccc(-c5cnc([C@@H]6CCCN6C(=O)[C@@H](c6ccccc6)N6CCCCC6)[nH]5)cc4)cc3)[nH]2)C1 [Example 107-12, tert-butyl 3-(((2S)-2-(5-(4′-(2-((2S)-1-((2R)-2-phenyl-2-(1-piperidinyl)acetyl)-2-pyrrolidinyl)-1H-imidazol-5-yl)-4-biphenylyl)-1H-imidazol-2-yl)-1-pyrrolidinyl)carbonyl)-1-azetidinecarboxylate] | 0.001 to 0.999 nM | 
CC(C)(C)OC(=O)N[C@H]1CC[C@@H](C(=O)N2CCC[C@H]2c2ncc(-c3ccc(-c4ccc(-c5cnc([C@@H]6CCCN6C(=O)[C@@H](c6ccccc6)N6CCCCC6)[nH]5)cc4)cc3)[nH]2)CC1 [Example 107-13, tert-butyl (cis-4-(((2S)-2-(5-(4′-(2-((2S)-1-((2R)-2-phenyl-2-(1-piperidinyl)acetyl)-2-pyrrolidinyl)-1H-imidazol-5-yl)-4-biphenylyl)-1H-imidazol-2-yl)-1-pyrrolidinyl)carbonyl)cyclohexyl) carbamate] | 0.001 to 0.999 nM | 
CC(C)(C)OC(=O)N1CCC(C)(C(=O)N2CCC[C@H]2c2ncc(-c3ccc(-c4ccc(-c5cnc([C@@H]6CCCN6C(=O)[C@@H](c6ccccc6)N6CCCCC6)[nH]5)cc4)cc3)[nH]2)CC1 [Example 107-14, tert-butyl 4-methyl-4-(((2S)-2-(5-(4′-(2-((2S)-1-((2R)-2-phenyl-2-(1-piperidinyl)acetyl)-2-pyrrolidinyl)-1H-imidazol-5-yl)-4-biphenylyl)-1H-imidazol-2-yl)-1-pyrrolidinyl)carbonyl)-1-piperidinecarboxylate] | 0.001 to 0.999 nM | 
O=C([C@@H](c1ccccc1)N1CCCCC1)N1CCC[C@H]1c1ncc(-c2ccc(-c3ccc(-c4cnc([C@@H]5CCCN5C(=O)C5(C(F)(F)F)CC5)[nH]4)cc3)cc2)[nH]1 [Example 107-15, 1-((1R)-2-oxo-1-phenyl-2-((2S)-2-(5-(4′-(2-((2S)-1-((1-(trifluoromethyl)cyclopropyl)carbonyl)-2-pyrrolidinyl)-1H-imidazol-5-yl)-4-biphenylyl)-1H-imidazol-2-yl)-1-pyrrolidinyl)ethyl)piperidine] | 0.001 to 0.999 nM | 
Cc1cc(CC(=O)N2CCC[C@H]2c2ncc(-c3ccc(-c4ccc(-c5cnc([C@@H]6CCCN6C(=O)[C@@H](c6ccccc6)N6CCCCC6)[nH]5)cc4)cc3)[nH]2)n[nH]1 [Example 107-16, 1-((1R)-2-((2S)-2-(5-(4′-(2-((2S)-1-((5-methyl-1H-pyrazo1-3-yl)acetyl)-2-pyrrolidinyl)-1H-imidazol-5-yl)-4-biphenylyl)-1H-imidazol-2-yl)-1-pyrrolidinyl)-2-oxo-1-phenylethyl) piperidine] | 0.001 to 0.999 nM | 
O=C([C@@H]1CCN(Cc2ccccc2)C1)N1CCC[C@H]1c1ncc(-c2ccc(-c3ccc(-c4cnc([C@@H]5CCCN5C(=O)[C@@H](c5ccccc5)N5CCCCC5)[nH]4)cc3)cc2)[nH]1 [Example 107-17] | 0.001 to 0.999 nM | 
O=C([C@H]1CCN(Cc2ccccc2)C1)N1CCC[C@H]1c1ncc(-c2ccc(-c3ccc(-c4cnc([C@@H]5CCCN5C(=O)[C@@H](c5ccccc5)N5CCCCC5)[nH]4)cc3)cc2)[nH]1 [Example 107-18, 1-((1R)-2-((2S)-2-(5-(4′-(2-((2S)-1-(((3S)-1-benzyl-3-pyrrolidinyl)carbonyl)-2-pyrrolidinyl)-1H-imidazol-5-yl)-4-biphenylyl)-1H-imidazol-2-yl)-1-pyrrolidinyl)-2-oxo-1-phenylethyl) piperidine] | 0.001 to 0.999 nM | 
